Where two headings read alike, the source gives them in different places. Peptide text beside a SMILES is read from it. * marks the point of attachment. X1 = CCCCCCCCCCCCCCCC(=O)OC[C@H](COP(=O)([O-])OCC[N+](C)(C)C)O*
Tests used:
[1] = target: bee-venom phospholipase A2 (Apis mellifera, UniProt P00630); assay type: biochemical
[2] = system: membrane fusion; conditions: ref Epand, 2003; cited from earlier work

Sequence of bee-venom phospholipase A2 (P00630 34-167 limits assumed): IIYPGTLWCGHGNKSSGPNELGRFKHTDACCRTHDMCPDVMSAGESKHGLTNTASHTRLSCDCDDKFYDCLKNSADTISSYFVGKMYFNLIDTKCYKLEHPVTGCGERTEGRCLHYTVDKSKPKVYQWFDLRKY

Molecule	time to complete hydrolysis by PLA2 [1]	time to complete hydrolysis by PLA2 ([1]; 40°C)	time to complete hydrolysis by PLA2 ([1]; pH 8.5)	hydrolysis by bee-venom PLA2 (result in words) [1]	antiviral action by inhibition of membrane fusion [2]
CCCCCCCCCCCCCCCC(=O)OC[C@H](COP(=O)([O-])OCC[N+](C)(C)C)OC(=O)CCCCCCCCCCCCCCC [DPPC, dipalmitoyl phosphatidylcholine, reference compound]	10 min	≤ 90 min	10 min		
CCCCCCCCCCCCCCCC(=O)OC[C@H](COP(=O)([O-])OCC[N+](C)(C)C)OC(=O)CNC(=O)CNC(=O)[C@@H]1CCCN1C(=O)CN.Cl [compound 10, 1-Palmitoyl-2-(gly-pro-gly-gly)-sn-glycero-3-phosphocholine hydrochloride] (H-GPGG-X1)			≤ 90 min	completely hydrolyzed	
CCCCCCCCCCCCCCCC(=O)OC[C@H](COP(=O)([O-])OCC[N+](C)(C)C)OC(=O)CNC(=O)[C@H](Cc1ccccc1)NC(=O)[C@@H](Cc1ccccc1)NC(=O)OCc1ccccc1 [compound 13, 1-Palmitoyl-2-(CBZ-D-phe-phe-gly)-sn-glycero-3-phosphocholine]			≤ 90 min	completely hydrolyzed	
CCCCCCCCCCCCCCCC(=O)OC[C@H](COP(=O)([O-])OCC[N+](C)(C)C)OC(=O)CNC(=O)OC(C)(C)C [compound 14, 1-palmitoyl-2-(N-BOC-glycyl)-sn-glycero-3-phosphocholine]	20 min			readily hydrolyzed	
carbobenzoxy-D-Phe-Phe-Gly [compound 5]					blocking viral infection by inhibiting membrane fusion
